# Measured values taken from US20240327382A1 (ALMAC DISCOVERY LIMITED, priority 2021, published 2024).
# Molecular target: T1, Full-length USP19 (Homo sapiens, UniProt O94966)
# T1 construct: Full-length USP19 was purchased from Boston Biochem (E-576); purchased Boston Biochem E-576
# T1 sequence (O94966 1-1318): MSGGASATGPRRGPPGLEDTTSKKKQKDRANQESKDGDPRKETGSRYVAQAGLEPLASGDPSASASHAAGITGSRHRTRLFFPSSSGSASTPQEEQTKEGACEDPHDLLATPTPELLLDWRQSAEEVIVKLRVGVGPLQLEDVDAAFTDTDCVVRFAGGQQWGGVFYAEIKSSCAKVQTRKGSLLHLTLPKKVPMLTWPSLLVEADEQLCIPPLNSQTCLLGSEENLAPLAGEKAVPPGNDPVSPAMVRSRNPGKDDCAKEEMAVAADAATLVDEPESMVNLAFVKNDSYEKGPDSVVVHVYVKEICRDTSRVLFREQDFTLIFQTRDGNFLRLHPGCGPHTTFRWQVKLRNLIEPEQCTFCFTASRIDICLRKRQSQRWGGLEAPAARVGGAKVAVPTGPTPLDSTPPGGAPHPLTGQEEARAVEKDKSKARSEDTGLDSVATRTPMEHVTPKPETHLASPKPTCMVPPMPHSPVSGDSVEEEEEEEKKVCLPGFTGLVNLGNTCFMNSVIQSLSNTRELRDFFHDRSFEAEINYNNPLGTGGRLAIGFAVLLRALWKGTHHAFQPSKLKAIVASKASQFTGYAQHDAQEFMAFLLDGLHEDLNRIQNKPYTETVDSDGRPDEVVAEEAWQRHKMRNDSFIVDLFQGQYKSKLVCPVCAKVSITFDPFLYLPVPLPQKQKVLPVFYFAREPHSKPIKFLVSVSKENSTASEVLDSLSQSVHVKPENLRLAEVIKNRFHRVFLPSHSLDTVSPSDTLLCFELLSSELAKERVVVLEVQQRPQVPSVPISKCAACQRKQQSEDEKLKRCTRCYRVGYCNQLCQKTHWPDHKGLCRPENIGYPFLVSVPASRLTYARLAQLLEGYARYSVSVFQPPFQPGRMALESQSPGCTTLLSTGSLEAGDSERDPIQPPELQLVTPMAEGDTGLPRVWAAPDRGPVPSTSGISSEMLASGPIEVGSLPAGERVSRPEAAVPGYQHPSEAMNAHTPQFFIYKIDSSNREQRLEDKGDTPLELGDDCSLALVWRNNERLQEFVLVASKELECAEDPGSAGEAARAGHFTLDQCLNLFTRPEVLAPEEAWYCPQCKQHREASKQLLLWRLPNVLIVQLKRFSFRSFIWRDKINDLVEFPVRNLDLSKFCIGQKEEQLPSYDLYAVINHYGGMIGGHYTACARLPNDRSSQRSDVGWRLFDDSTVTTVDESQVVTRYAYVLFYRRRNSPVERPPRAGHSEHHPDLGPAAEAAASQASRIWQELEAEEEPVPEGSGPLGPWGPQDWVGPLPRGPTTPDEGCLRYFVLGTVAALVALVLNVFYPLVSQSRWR
# Assay: USP19 fluorescence polarisation (FP) assay, Ubiquitin-Lys-TAMRA substrate
# Format: biochemical
# Details: average of at least two duplicate experiments
# Outline: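 Fluorescence polarisation (excitation 530 nm, parallel and perpendicular emission at 575 nm) was recorded every 15 min for 90 min after adding the ubiquitin-Lys-TAMRA isopeptide (500 nM as dispensed). Beforehand, the full-length enzyme (2.5 nM as dispensed) sat 30 min at RT with compound diluted from 200 μM to 2 μM in HEPES pH 7.4 buffer with 150 mM NaCl, 5 mM DTT, 0.05% BSA and 0.05% CHAPS. Values normalised to uninhibited wells gave IC50s by non-linear fitting, each the mean of two or more duplicate runs.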
row,IC50 [nM],SMILES
1,< 10,"CN[C@@H]1CCN(C(=O)N2CC[C@@H](Cn3cnc(-c4ccccc4)cc3=O)C3(CCCC3)C2)[C@H](c2cccc(F)c2)C1 [Example 63, 3-(((R)-7-((2S,4R)-2-(3-Fluorophenyl)-4-(methylamino)piperidine-1-carbonyl)-7-azaspiro[4.5]decan-10-yl)methyl)-6-phenylpyrimidin-4(3H)-one]"
2,< 10,"CN[C@@H]1CCN(C(=O)N2CC[C@@H](Cn3ccc(-c4ccccc4)cc3=O)C3(CCCC3)C2)[C@H](c2cccc(F)c2)C1 [Example 64, 1-(((R)-7-((2S,4R)-2-(3-Fluorophenyl)-4-(methylamino)piperidine-1-carbonyl)-7-azaspiro[4.5]decan-10-yl)methyl)-4-phenylpyridin-2(1H)-one]"
3,< 10,"N[C@@H]1CCN(C(=O)N2CC[C@@H](Cn3ccc(-c4ccccc4)cc3=O)C3(CCCC3)C2)[C@H](c2cccc(F)c2)C1 [Example 65, 1-(((R)-7-((2S,4R)-4-Amino-2-(3-fluorophenyl)piperidine-1-carbonyl)-7-azaspiro[4.5]decan-10-yl)methyl)-4-phenylpyridin-2(1H)-one]"
4,< 10,"N[C@@H]1CCN(C(=O)N2CC[C@@H](Cn3cnc(-c4ccccc4)cc3=O)C3(CCCC3)C2)[C@H](c2cccc(F)c2)C1 [Example 66, 3-(((R)-7-((2,4R)-4-Amino-2-(3-fluorophenyl)piperidine-1-carbonyl)-7-azaspiro[4.5]decan-10-yl)methyl)-6-phenylpyrimidin-4(3H)-one]"
5,< 10,"N[C@@H]1CCN(C(=O)N2CC[C@@H](Cn3ccc(Cl)cc3=O)C3(CCCC3)C2)[C@H](c2ccccc2)C1 [Example 67, 1-(((R)-7-((2S,4R)-4-Amino-2-phenylpiperidine-1-carbonyl)-7-azaspiro[4.5]decan-10-yl)methyl)-4-chloropyridin-2(1H)-one]"
6,10 to 100,"CC[C@@H]1C[C@H](N)CCN1C(=O)N1CC[C@@H](Cn2ccc(-c3ccccc3)cc2=O)C2(CCCC2)C1 [Example 68, 1-(((R)-7-((2R,4R)-4-Amino-2-ethylpiperidine-1-carbonyl)-7-azaspiro[4.5]decan-10-yl)methyl)-4-phenylpyridin-2(1H)-one]"
7,< 10,"CC1(C)CN(C(=O)N2CC[C@@H](N)C[C@H]2c2ccccc2)CC[C@H]1Cn1ccc(-c2ccccc2)cc1=O [Example 69, 1-(((R)-1-((2S,4R)-4-Amino-2-phenylpiperidine-1-carbonyl)-3,3-dimethylpiperidin-4-yl)methyl)-4-phenylpyridin-2(1H)-one]"
8,< 10,"N[C@H]1C[C@@H](c2ccccc2)N(C(=O)N2CC[C@@H](Cn3cnc(-c4ccccc4)cc3=O)C3(CCCC3)C2)C1 [Example 70, 3-(((R)-7-((2S,4S)-4-Amino-2-phenylpyrrolidine-1-carbonyl)-7-azaspiro[4.5]decan-10-yl)methyl)-6-phenylpyrimidin-4(3H)-one]"
9,< 10,"O=C(N1CC[C@@H](Cn2cnc(-c3ccccc3)cc2=O)C2(CCCC2)C1)N1CC[C@@H](NCC(F)F)C[C@H]1c1ccccc1 [Example 71, 3-(((R)-7-((2S,4R)-4-((2,2-Difluoroethyl)amino)-2-phenylpiperidine-1-carbonyl)-7-azaspiro[4.5]decan-10-yl)methyl)-6-phenylpyrimidin-4(3H)-one]"
10,< 10,"CN[C@@H]1CCN(C(=O)N2CC[C@@H](Cn3ccc(-c4ccccc4)cc3=O)C(C)(C)C2)[C@H](c2ccccc2)C1 [Example 72, 1-(((R)-3,3-Dimethyl-1-((2S,4R)-4-(methylamino)-2-phenylpiperidine-1-carbonyl)piperidin-4-yl)methyl)-4-phenylpyridin-2(1H)-one]"
11,< 10,"CO[C@@]1(Cn2ccc(-c3ccccc3)cc2=O)CCN(C(=O)N2CC[C@@H](N)C[C@H]2c2ccccc2)CC12CCCC2 [Example 73, 1-(((S)-7-((2S,4R)-4-Amino-2-phenylpiperidine-1-carbonyl)-10-methoxy-7-azaspiro[4.5]decan-10-yl)methyl)-4-phenylpyridin-2(1H)-one]"
12,< 10,"CN[C@@H]1CCN(C(=O)N2CCC(Cn3cnc(-c4ccccc4)cc3=O)CC2)[C@H](c2cccc(F)c2)C1 [Example 74, 3-((1-((2S,4R)-2-(3-Fluorophenyl)-4-(methylamino)piperidine-1-carbonyl)piperidin-4-yl)methyl)-6-phenylpyrimidin-4(3H)-one]"
13,10 to 100,"CCN[C@@H]1CCN(C(=O)N2CCC(Cn3cnc(-c4ccccc4)cc3=O)CC2)[C@H](c2ccccc2)C1 [Example 75, 3-((1-((2S,4R)-4-(Ethylamino)-2-phenylpiperidine-1-carbonyl)piperidin-4-yl)methyl)-6-phenylpyrimidin-4(3H)-one]"
14,1000 to 20000,COC(=O)[C@@H]1CCN(C(=O)N2CC[C@@H](Cn3cnc(-c4ccccc4)cc3=O)C3(CCCC3)C2)[C@H](c2ccccc2)C1 [Example 76]
15,< 10,"Cc1ccccc1-c1cc(=O)n(C[C@@H]2CCN(C(=O)N3CC[C@@H](N)C[C@H]3c3ccccc3)CC23CCCC3)cn1 [Example 77, 3-(((R)-7-((2,4R)-4-Amino-2-phenylpiperidine-1-carbonyl)-7-azaspiro[4.5]decan-10-yl)methyl)-6-(o-tolyl)pyrimidin-4(3H)-one]"
16,< 10,"CN[C@@H]1CCN(C(=O)N2CC[C@@H](Cn3cnc(-c4ccccc4)cc3=O)C3(CCCC3)C2)[C@H](c2cc(F)ccc2F)C1 [Example 78, 3-(((R)-7-((2S,4R)-2-(2,5-Difluorophenyl)-4-(methylamino)piperidine-1-carbonyl)-7-azaspiro[4.5]decan-10-yl)methyl)-6-phenylpyrimidin-4(3H)-one]"
17,< 10,"O=C(N1CC[C@@H](Cn2cnc(-c3ccccc3)cc2=O)C2(CCCC2)C1)N1CC[C@@H](NC2CC2)C[C@H]1c1ccccc1 [Example 79, 3-(((R)-7-((2S,4R)-4-(Cyclopropylamino)-2-phenylpiperidine-1-carbonyl)-7-azaspiro[4.5]decan-10-yl)methyl)-6-phenylpyrimidin-4(3H)-one]"
18,< 10,"N[C@@H]1CCN(C(=O)N2CC[C@@H](Cn3cnc(-c4ccccc4)cc3=O)C3(CCCC3)C2)[C@H](c2ccc(F)cc2F)C1 [Example 80, 3-(((R)-7-((2S,4R)-4-Amino-2-(2,4-difluorophenyl)piperidine-1-carbonyl)-7-azaspiro[4.5]decan-10-yl)methyl)-6-phenylpyrimidin-4(3H)-one]"
19,< 10,"Cc1ccccc1-c1cc(=O)n(C[C@@H]2CCN(C(=O)N3CC[C@@H](N)C[C@H]3c3cccc(F)c3)CC23CCCC3)cn1 [Example 81, 3-(((R)-7-((2S,4R)-4-Amino-2-(3-fluorophenyl)piperidine-1-carbonyl)-7-azaspiro[4.5]decan-10-yl)methyl)-6-(0-tolyl)pyrimidin-4(3H)-one]"
20,< 10,"Cc1ccccc1-c1cc(=O)n(C[C@@H]2CCN(C(=O)N3CC[C@@H](N)C[C@H]3c3cc(F)ccc3F)CC23CCCC3)cn1 [Example 82, 3-(((R)-7-((2S,4R)-4-Amino-2-(2,5-difluorophenyl)piperidine-1-carbonyl)-7-azaspiro[4.5]decan-10-yl)methyl)-6-(o-tolyl)pyrimidin-4(3H)-one]"
21,< 10,"CN[C@@H]1CCN(C(=O)N2CC[C@@H](Cn3ccc(Cl)cc3=O)C3(CCCC3)C2)[C@H](c2ccccc2)C1 [Example 83, 4-Chloro-1-(((R)-7-((2S,4R)-4-(methylamino)-2-phenylpiperidine-1-carbonyl)-7-azaspiro[4.5]decan-10-yl)methyl)pyridin-2(1H)-one]"
